Measurements from patent publication US20240307477A1, “COMPOSITION FOR PREVENTING OR TREATING LIVER FIBROSIS INCLUDING SANGUISORBA OFFICINALIS EXTRACT AS ACTIVE INGREDIENT” (KOREA INSTITUTE OF SCIENCE AND TECHNOLOGY, priority 2023, published 2024).

What follows are compounds tested on human immortalization hepatic stellate cells (human LX-2) (assay: RT-qPCR of liver fibrosis-related gene expression in TGF-β-treated hepatic stellate cells). Settings: LX-2 cells, 5 ng/mL TGF-β, 24 hours; extract 1, 5 or 10 μg/mL, ziyuglycoside 5 μM; RT-qPCR vs GAPDH.
Type: cell-based
Protocol: As hepatic stellate cells, human immortalization hepatic stellate cells (human LX-2) were given and used. The hepatic stellate cells were cultured in Dulbecco's modified Eagle's medium (DMEM; Invitrogen, US) containing 10% fetal bovine serum (FBS), penicillin (100 U/mL) and streptomycin ([…]) at 37° C. and in a 5% CO2 condition.
To measure the hepatic anti-fibrosis effect of the Sanguisorba officinalis extract (1, 5 or 10 μg/mL) and ziyuglycoside (5 μM) in the LX-2 cells, a real time-quantitative polymerase chain reaction (RT-qPCR) was performed.
First, the hepatic stellate cells were treated with each of the Sanguisorba officinalis extract (1, 5, or 10 μg/mL) and the ziyuglycoside (5 μM) along with 5 ng/mL of a liver fibrosis-inducing material TGF-β and cultured for 24 hours. Afterward, the cells were washed with PBS, total RNA was then extracted according to the manual of an RNA extraction kit (GeneAll RNA isolation kit, Korea), and cDNA was synthesized from the extracted RNA. PCR analysis was performed under user recommended cycling conditions of an analyzer (Applied Biosystems 7900 HT thermal cycler, Applied Biosystems), and to confirm the expression level of each mRNA, PCR was performed using the primers in Table 1 below, and the fold change value for the control was calculated using GAPDH as an endogenous control, and a relative expression level was compared.

| Compound | ACTA2 gene expression increased by TGF-β treatment | COL1A1 gene expression increased by TGF-β treatment | TIMP1 gene expression increased by TGF-β treatment |
| --- | --- | --- | --- |
| C[C@@H]1CC[C@]2(C(=O)O)CC[C@]3(C)C(=CC[C@@H]4[C@@]5(C)CC[C@H](O[C@@H]6OC[C@H](O)[C@H](O)[C@H]6O)C(C)(C)[C@@H]5CC[C@]43C)[C@@H]2[C@]1(C)O [ziyuglycoside II] | inhibited | inhibited | inhibited |
| C[C@@H]1CC[C@]2(C(=O)O[C@@H]3O[C@H](CO)[C@@H](O)[C@H](O)[C@H]3O)CC[C@]3(C)C(=CC[C@@H]4[C@@]5(C)CC[C@H](O[C@@H]6OC[C@H](O)[C@H](O)[C@H]6O)C(C)(C)[C@@H]5CC[C@]43C)[C@@H]2[C@]1(C)O [ziyuglycoside I] | inhibited | inhibited | inhibited |
| ziyuglycoside | reduced | reduced | reduced |
